This passage reports Activity results from ChEMBL document CHEMBL1140673, “Agonist lead identification for the high affinity niacin receptor GPR109a” (Bioorg Med Chem Lett, 2007).

Each structure is given as a SMILES string. Activity calls are given as the source filed them. The rule behind the calls is not given here.

In the experiment the target is Hydroxycarboxylic acid receptor 3 (Homo sapiens) (UniProt P49019). The experiment can be described thus: Agonist activity at human cloned GPR109b receptor at 100 uM by forskolin-stimulated cAMP production test. The experiment is classed as functional.
Sequence of Hydroxycarboxylic acid receptor 3 (Homo sapiens) (P49019 whole entry): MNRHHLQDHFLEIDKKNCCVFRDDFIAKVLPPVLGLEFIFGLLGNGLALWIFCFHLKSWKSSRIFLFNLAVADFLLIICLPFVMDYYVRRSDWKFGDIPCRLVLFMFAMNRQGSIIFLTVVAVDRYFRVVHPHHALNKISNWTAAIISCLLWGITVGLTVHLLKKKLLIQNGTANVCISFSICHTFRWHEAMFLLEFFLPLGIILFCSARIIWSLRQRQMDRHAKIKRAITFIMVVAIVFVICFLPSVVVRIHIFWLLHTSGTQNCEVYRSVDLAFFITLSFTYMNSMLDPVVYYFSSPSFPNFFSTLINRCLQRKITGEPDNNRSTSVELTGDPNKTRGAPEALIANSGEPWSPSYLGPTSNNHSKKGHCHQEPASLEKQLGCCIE

As for `Cc1cc(C(=O)O)n[nH]1`, the result was inactive.
